Source: BigSolDB 2.1

solubility (mole fraction) (in n-hexane, 293.15 K)	solubility (mole fraction) (in n-hexane, 298.15 K)	solubility (mole fraction) (in n-hexane, 303.15 K)	solubility (mole fraction) (in n-hexane, 310.15 K)	solubility (mole fraction) (in n-hexane, 315.15 K)	solubility (mole fraction) (in n-octanol, 293.15 K)	solubility (mole fraction) (in n-octanol, 298.15 K)	solubility (mole fraction) (in n-octanol, 303.15 K)	solubility (mole fraction) (in n-octanol, 310.15 K)	solubility (mole fraction) (in n-octanol, 315.15 K)	SMILES
0.000144	0.000176	0.000215	0.00028	0.000344	0.0075	0.0093	0.0118	0.0156	0.0202	CC(=O)c1ccc(N=C2SCC3CCCN2C3)cc1 (stereo not given)
7.1e-05	8.71e-05	0.000106	0.000134	0.000161	0.00305	0.00377	0.00454	0.00605	0.00736	Cc1ccc(N=C2SCC3CCCN2C3)cc1Cl (stereo not given)
0.0033	0.00465	0.00654	0.0104	0.0135	0.145	0.157	0.171	0.193	0.209	Cc1ccc(N=C2SCC3CCCN2C3)cc1 (stereo not given)
0.000225	0.000289	0.000382	0.000537	0.000673	0.0124	0.0139	0.0163	0.0194	0.0224	CCc1ccc(N=C2SCC3CCCN2C3)cc1 (stereo not given)
0.000223	0.000271	0.000337	0.000422	0.000523	0.0087	0.0107	0.0131	0.0166	0.0202	N#Cc1ccc(N=C2SCC3CCCN2C3)cc1 (stereo not given)
0.0015	0.00187	0.00224	0.00294	0.00359	0.0245	0.0296	0.0354	0.0469	0.0567	Fc1ccc(N=C2SCC3CCCN2C3)cc1 (stereo not given)
0.00135	0.00158	0.00195	0.00246	0.00288	0.143	0.154	0.164	0.182	0.194	CC(C)c1ccc(N=C2SCC3CCCN2C3)cc1 (stereo not given)
0.000248	0.000286	0.000339	0.000402	0.00046	0.0118	0.0132	0.0146	0.0171	0.0189	FC(F)(F)c1ccc(N=C2SCC3CCCN2C3)cc1 (stereo not given)
